Patent US20260207548A1, “METHODS AND COMPOSITIONS FOR THE TREATMENT OF VASCULAR ANOMALIES” (THE CHILDREN'S MEDICAL CENTER CORPORATION, priority 2022, published 2026)
Entries after “also recorded” stand apart in the source; their conditions may differ.

Tests used:
[1] = tested on: β1- and β2-adrenergic receptors; details: cited from earlier work
SOX18 = molecular target: T1, SOX18 (Homo sapiens, UniProt P35713); details: cited from earlier work
T1 sequence (P35713 1-384): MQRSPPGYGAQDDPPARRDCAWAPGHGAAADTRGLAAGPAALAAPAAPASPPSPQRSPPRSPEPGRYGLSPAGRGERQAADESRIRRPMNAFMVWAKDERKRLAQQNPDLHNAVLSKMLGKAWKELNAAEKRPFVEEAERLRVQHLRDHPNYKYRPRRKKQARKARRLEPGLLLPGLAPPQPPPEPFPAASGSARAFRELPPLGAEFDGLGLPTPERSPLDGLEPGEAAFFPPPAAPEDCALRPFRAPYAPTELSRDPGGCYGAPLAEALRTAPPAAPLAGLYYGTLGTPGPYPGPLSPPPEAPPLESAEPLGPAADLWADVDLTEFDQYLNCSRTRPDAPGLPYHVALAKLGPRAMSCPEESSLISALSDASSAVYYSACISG

HemSC [2] = details: earlier work; cited from earlier work
SREBP2 [3] = test: SOX18 shRNA knockdown HemEC: SREBP2 Western blot and qPCR of SREBP2 target genes; type: cell-based, human; details: shSOX18 HemEC
Method: shRNA knockdown of SOX18: HemEC (n=3) were transduced with SOX18 shRNA lentivirus (TRCN0000017450, Sigma) or an empty vector control virus (Sigma) followed by puromycin (1 μg/mL) selection for 5 days. Thereafter, cells were maintained in full media without puromycin. Knockdown efficiency was confirmed by qPCR and Western Blot (FIG. 7C-7G, 8A-8B).
(§1) Cells were lysed in a RIPA-based lysis buffer (25 mM Tris HCl pH 7.6, 150 mM NaCl, 1% NP-40, 1% sodium deoxycholate, 0.1% SDS) with protease and phosphatase inhibitors (Cell Signaling Technology). Cell extracts were electrophoresed by sodium dodecyl sulfate-polyacrylamide gel electrophoresis (SDS-PAGE), transferred to nitrocellulose or to polyvinylidene difluoride (PDVF) and probed with SOX18 D-8 (Santa Cruz Biotechnology) or SREBP2 clone 22D5 (MilliporeSigma) and GAPDH (Cell Signaling Technology). All signals were detected by enhanced chemiluminescence. The densitometric analysis was conducted by using Fiji ImageJ software.

[4] = tested on: cholesterol biosynthesis in HUVEC; test: Endogenous cholesterol in cholesterol-depleted HUVEC by mass spectrometry; type: cell-based, human; details: 16 hours
Method: Cell culture: HUVECs were grown in EBM-2 media (Lonza, CC-3156) and supplemented with EGM-2 bullet kit (Lonza, CC-3162). HUVECs were seeded on 0.5% gelatin-coated 6-well plates at a density of 1.5×10^5 cells/well for overnight.
Methyl-β-cyclodextrin treatment: The day after cell seeding cells were treated with, (MBCD, Sigma #C4555) at a concentration of 2.5 mM to ensure a similar level of endogenous cholesterol among the groups. The treatment with MBCD was completely withdrawn after 4 hours by discarding the media and washed the cells with PBS. […] Cells were then washed with PBS and trypsinized. Following trypsinization cells were washed with PBS and centrifuged (FIG. 4B, 4C).
Cholesterol measurement using Targeted Mass Spectrometry: Lipids were extracted from the cell pellets through one-phase extraction with 202 μL of BuOH: MeOH (1:1) (Sigma #71-36-3 and #67-56-1) that contains […] of cholesterol-d7 (Cayman Chemical #83199-47-7) as the internal standard. The cholesterol analysis was performed on a Thermo Fisher TSQ Altis triple quadrupole mass spectrometer, operated in positive ion mode, coupled to a Vanquish UHPLC system (Thermo Fisher, Waltham, USA) using the transition from precursor mass of m/z 369.3516 (MS1) to m/z 161.1 (MS3) for cholesterol and 376.4 to 161.1 for cholesterol-d7 [REF]. […]

SREBP2 [5] = test: Western blot of SREBP2 in HemSC undergoing endothelial differentiation; type: cell-based, human; details: 2 hours on Day 6 of differentiation, hydrochloride
Method: as §1

[6] = tested on: Hemangioma-derived stem cells (HemSC); details: earlier work; cited from earlier work
[7] = tested on: MVP genes (HMGCS1, HMGCR, MVK, ABCA1); test: Mevalonate pathway (MVP) gene transcripts in differentiating HemSC, bulk RNA-seq and qPCR; type: cell-based, human; details: for transcripts encoding MVP enzymes (incl. HMGCR, HMGCS1, MVK), RNA-seq: 20 μM, 2 hours, Day 6 of differentiation, hydrochloride
zebrafish = details: in vivo; cited from earlier work
breast cancer model = details: in vivo; cited from earlier work
LDL-receptor = LDL-receptor mRNA in HemSC as indirect measure of HMGCR inhibition; type: cell-based, human; details: 1 μM atorvastatin, 24 hours
[8] = tested on: Hemangioma-derived stem cells (HemSC); test: IH xenograft model: patient-derived HemSC in Matrigel injected subcutaneously into nude mice, human blood vessel formation; type: in vivo
Method: MilliporeSigma) was prepared in DMSO. […] Dako, Glostrup, 0823) to stain human ECs. Next, sections were incubated with Alexa Fluor 647 chicken anti-mouse IgG (1:200, Invitrogen, Thermo Fisher Scientific) as a secondary antibody (FIG. 9C, 9D).

HemSC [9] = details: atorvastatin 0.1 μM, 6 days
infantile hemangioma = details: infants with IH; cited from earlier work

SMILES: CC(C)NC[C@H](O)COc1cccc2ccccc12 (single isomer, unassigned) [S(−) enantiomer]
- β1 and β2-adrenergic receptor antagonism [1]: potent antagonist

SMILES: CC(C)NC[C@@H](O)COc1ccc(CC(N)=O)cc1 [R(+) atenolol]
- SOX18 activity (SOX18): inhibit

SMILES: CC(C)NC[C@@H](O)COc1cccc2ccccc12.Cl [R(+) propranolol, R(+) propranolol hydrochloride]
- HemSC endothelial differentiation in vitro (HemSC [2]): inhibits
- SOX18 activity (SOX18): inhibit
- HMGCS1 and HMGCR mRNA levels (SREBP2 [3]): did not reduce the mRNA levels
- endogenous cholesterol levels ([4]; 20 μM R+ propranolol after MBCD depletion, hydrochloride): significantly reduced; also recorded: decreased new synthesis of cholesterol
- mature 62 kDa SREBP2 (SREBP2 [5]): decreased mature 62 kDa SREBP2
- mature 62 kDa SREBP2 (SREBP2 [5]; listed as R+ propranolol): decreased levels of 62 kDa mature SREBP2
- HemSC vasculogenesis in vivo [6]: inhibits
- transcripts encoding MVP enzymes (incl. HMGCR, HMGCS1, MVK), RNA-seq [7]: significantly reduced transcripts encoding several enzymes of the MVP
- transcripts encoding MVP enzymes (incl. HMGCR, HMGCS1, MVK), RNA-seq ([7]; listed as R+ propranolol): inhibits eight enzymes in the mevalonate pathway
- ABCA1 mRNA, qPCR ([7]; 2 hours or 4 days treatment): upregulated
- HMGCS1, HMGCR and MVK mRNA, qPCR ([7]; 2 hours or 4 days treatment): Downregulation
- downregulation of MVP transcripts ([7]; Day 4 of differentiation): not seen

SMILES: O=C(O)c1c(O)cccc1CCc1ccc2ccccc2c1 [Sm4]
- vascular development (zebrafish): suppresses vascular development in zebrafish
- tumor angio- and lymph-angiogenesis (breast cancer model): suppresses
- endogenous cholesterol levels ([4]; 40 μM Sm4 after MBCD depletion): significantly reduced; also recorded: decreased new synthesis of cholesterol

SMILES: CC(C)c1c(C(=O)Nc2ccccc2)c(-c2ccccc2)c(-c2ccc(F)cc2)n1CC[C@@H](O)C[C@@H](O)CC(=O)O [atorvastatin]
- LDL-R mRNA (LDL-receptor): significant upregulation of LDL-R mRNA; also recorded: increase LDL receptor mRNA
- human CD31+ blood vessel formation from HemSC ([8]; atorvastatin 1 mg/kg/d, 7 days): significantly blocked the formation of human blood vessels; also recorded: significantly inhibited human CD31+ blood vessel formation
- HemSC blood vessel formation in xenograft model ([8]; overall statement, no single dose): inhibited blood vessel formation; also recorded: significantly reduced HemSC blood vessel formation in a dose-dependent manner; also recorded: inhibit IH vessel formation
- VEGF-B induced endothelial differentiation (mRNA of CD31 and VE-Cadherin) (HemSC [9]): significantly inhibited endothelial differentiation; also recorded: inhibited VEGF-B induced endothelial differentiation

SMILES: CC(C)NCC(O)COc1cccc2ccccc12 (stereo not drawn) [propranolol]
- β1 and β2-adrenergic receptor antagonism [1]: non-selective antagonist
- complete response rate (infantile hemangioma): 60%

SMILES: CCC(C)(C)C(=O)O[C@H]1C[C@@H](C)C=C2C=C[C@H](C)[C@H](CC[C@@H]3C[C@@H](O)CC(=O)O3)[C@H]21 [simvastatin]
- lowest dose that showed significant reduction in IH vessels ([8]; simvastatin dose response 0.1-10 mg/kg/d): 1 mg/kg/day
